Measurements published in patent publication US12582604B2, “Stable solid dispersion of a B-RAF kinase dimer inhibitor, methods of preparation, and uses therefor” (BEIGENE, LTD., priority 2019, dated 2026).
Converted amounts (≈) assume the structure as drawn. “Also recorded” adds a separate entry of the source. Blank lines part the entries; values can stand above or below the compound they belong to.

How the values were obtained:
[1] = Solubility measurement (shaking 200 rpm at 25° C., HPLC); type: physicochemical
[2] = Pharmacokinetic comparison of Forms A-H in rats (Example 14); type: in vivo
Description: Pharmacokinetic Comparison of Form a, B, C, D, E, F, G and H in Rats
(§1) Powder of Form A with particle sizes of D90=62.4 μm after micronization. The material content (purity) was not less than 98.0%.
Powder of Form B with particle sizes of D90=69.9 μm, D10=3.5 um, […] after micronization. The material content (purity) was not less than 98.0%.
Powders of Forms C, D, E, F, G and H with particle sizes of D90<600 μm after micronization. The material content (purity) was not less than 98.0%.
Rats, male and female, were used in this study.
An appropriate amount of each substance was weighted and was dispersed in 0.5% sodium carboxymethyl cellulose. A suspension was prepared at the desired concentration of Compound 1 for each substance. All the doses and concentrations of Compound 1 were calculated with freebase in this study.
(§2) The dosing solutions were freshly prepared prior to dose administration. The actual body weights and actual volume injected were recorded accordingly. The rats were fasted overnight and were allowed to intake food four hours after dosing. Each suspension was administrated orally to rats at a dose ranged from 0.5 to 5 mg/kg. Blood samples (˜1.0 mL) were collected at pre-dose and at different times up to 36 hours post-dosing via cephalic vein plexus. Whole blood was processed by centrifugation and plasma samples were collected and kept at freezer prior to analysis. Plasma samples were processed by protein precipitation. Concentrations of Compound 1 in the plasma samples were determined using a validated liquid chromatography-tandem mass spectrometry (LC-MS/MS) method. The plasma concentration-time data were analyzed using a non-compartmental model using Pharsight WinNonlin.

[3] = Long-term and accelerated stability studies (impurities, optical purity, XRPD, water content); type: physicochemical; settings: for Total impurities T0: initial
[4] = Hygroscopicity by dynamic vapor sorption (DVS); type: physicochemical; settings: for Hygroscopicity (in words): DVS, 80% RH
[5] = Long-term and accelerated stability studies (impurities, optical purity, XRPD, water content); type: physicochemical
Method: Chiral purity and polymorph results had no changes when stored at 25° C./60% RH for up to 24 months.

[6] = Pharmacokinetic comparison of Form A and Form F in dogs (Example 15); type: in vivo, Beagle dogs; settings: for half-life: read-out: T½ (converted)
Method: Pharmacokinetic Comparison of Form A and Form F in Dogs
as §1
Powder of Form F with particle sizes of D90<200 μm after micronization. The material content (purity) was not less than 98.0%.
Beagle dogs, male and female, were used in this study.
An appropriate amount of each substance was weighed and was disperse in 0.5% sodium carboxymethyl cellulose. A suspension was prepared at the desired concentration of Compound 1 for each substance. All the doses and concentrations of Compound 1 were calculated with freebase in this study.
as §2, with “dogs” for “rats”

[7] = Pharmacokinetic comparison of Forms A-H in rats (Example 14); type: in vivo; settings: rat, plasma
[8] = tested on: RAF family of serine/threonine kinases; settings: especially against BRAF/CRAF dimers; cited from earlier work
[9] = 25° C./60% RH up to 24 months and 40° C./75% RH up to 6 months
[10] = both sexes, beagle, dog, plasma, 0.5 mg/kg, 0.5 mpk IV
[11] = both sexes, beagle, dog, plasma, 5 mg/kg, 5 mpk PO
[12] = both sexes, iv, 1 mg/kg, 1 mpk IV

Solubility (in words) ([1]; water and other common recrystallization solvents): very low solubilities
Structure (SMILES): O=C1CCc2c(Oc3ccc4c(c3)[C@H]3[C@H](NC(=O)N[C@@H]5[C@H]6Oc7ccc(Oc8ccnc9c8CCC(=O)N9)cc7[C@@H]56)[C@H]3O4)ccnc2N1 [Impurity-1]

AUC(0-t) ([2]; 5 mpk PO, 5 mg/kg): 13134 ng·h/mL | T1/2 ([2]; 5 mpk PO, 5 mg/kg): 2.47 h | Cmax and AUC0-inf compared with the amorphous solid dispersions (in words) ([2]; PO): lower | Cmax, AUC0-inf and F(%) compared to crystalline Form A (in words) ([2]; PO): higher | Time at which solid form is still stable by XRPD (no crystalline peaks) ([3]; 40° C./75% RH): ≥ 14 days
Structure (SMILES): O=C1CCc2c(Oc3ccc4c(c3)[C@H]3[C@H](NC(=O)Nc5cc(F)c(F)cc5F)[C@H]3O4)ccnc2N1 [Form B, 1-((1S,1aS,6bS)-5-((7-oxo-5,6,7,8-tetrahydro-1,8-naphthyridin-4-yl)oxy)-1a,6b-dihydro-1H-cyclopropa[b]benzofuran-1-yl)-3-(2,4,5-trifluorophenyl)urea]

solubility ([1]; 0.1N HCl, simulated gastric fluid): 20 µg/mL (≈ 41.5 µM) | solubility ([1]; 5% HTAB, aqueous with cosolvent or surfactant or cyclodextrin): 960 µg/mL (≈ 1990 µM) | solubility ([1]; 5% Pluronic F68, aqueous with cosolvent or surfactant or cyclodextrin): < 0.1 µg/mL | solubility ([1]; 5% SLS, aqueous with cosolvent or surfactant or cyclodextrin): 1000 µg/mL (≈ 2070 µM) | solubility ([1]; 20% hydroxypropyl-β-cyclodextrin (HP-β-CD), aqueous with cosolvent or surfactant or cyclodextrin): 550 µg/mL (≈ 1140 µM) | solubility ([1]; 20% sulfobutyl ether-β-cyclodextrin (SBE-β-CD), aqueous with cosolvent or surfactant or cyclodextrin): 550 µg/mL (≈ 1140 µM) | solubility at 2 h ([1]; DMA, organic solvent or mixture): > 372000 µg/mL | solubility at 2 h ([1]; DMSO, organic solvent or mixture): > 95400 µg/mL | solubility ([1]; n-heptane, organic solvent or mixture): < 0.1 µg/mL | solubility ([1]; pH 1.2 buffer solution, pH 1.2, simulated gastric fluid): 15 µg/mL (≈ 31.1 µM) | solubility ([1]; pH 4.5 buffer, pH 4.5, aqueous buffer): < 0.1 µg/mL | solubility ([1]; pH 6.8 buffer, pH 6.8, aqueous buffer): < 0.1 µg/mL | solubility ([1]; pH 7.4 buffer solution, pH 7.4, aqueous buffer): < 0.1 µg/mL | solubility ([1]; water): < 0.1 µg/mL | Hygroscopicity (in words) [4]: moderately hygroscopic | Crystalline form after DVS ([4]; after dynamic vapor sorption): changed to the Crystalline Form A* | Time at which solid form is still stable by XRPD ([5]; 25° C./60% RH): ≥ 6 months | Optical purity change [5, 9]: no optical purity changes | F ([2]; 1 mpk IV (reference)): 100% | AUC(0-t) ([2]; 5 mpk PO, 5 mg/kg): 5716 ng·h/mL | half-life ([2]; both sexes, rat, plasma, po, 5 mg/kg, 5 mpk PO): 2.94 h | F ([6]; 0.5 mpk IV (reference)): 100% | F ([6]; 5 mpk PO): 34% | AUC(0-t) [6, 10]: 6870 ng·h/mL | clearance [6, 10]: 1.22 mL/min/kg | half-life [6, 10]: 11 h | Vd ([6]; both sexes, beagle, dog, plasma, 0.5 mg/kg, 0.5 mpk IV, read-out: Vdss): 0.97 L/kg | AUC(0-t) [6, 11]: 23400 ng·h/mL | Cmax [6, 11]: 1120 ng/mL | half-life [6, 11]: 11 h | Storage time without obvious decomposition [3]: over 12 months | Total impurities T0 ([3]; 25° C./60% RH study): 1.0% | Chemical purity change [3, 9]: no significant chemical purity change | Total impurities T24 ([3]; 25° C./60% RH, 24 months): 1.0% | Time at which solid form is still stable by XRPD ([3]; 40° C./75% RH): ≥ 6 months | Total impurities T0 ([3]; 40° C./75% RH study): 1.0% | Total impurities T6 ([3]; 40° C./75% RH, 6 months): 1.0% | clearance ([7]; both sexes, 1 mg/kg, 1 mpk IV): 3.15 mL/min/kg | Vd ([7]; both sexes, 1 mg/kg, 1 mpk IV, read-out: Vdss): 1.15 L/kg | AUC(0-t) [7, 12]: 5330 ng·h/mL | half-life [7, 12]: 4.2 h
Structure (SMILES): O=C1CCc2c(Oc3ccc4c(c3)[C@H]3[C@H](NC(=O)Nc5cc(F)c(F)cc5F)[C@H]3O4)ccnc2N1 [Form A, 1-((1S,1aS,6bS)-5-((7-oxo-5,6,7,8-tetrahydro-1,8-naphthyridin-4-yl)oxy)-1a,6b-dihydro-1H-cyclopropa[b]benzofuran-1-yl)-3-(2,4,5-trifluorophenyl)urea]
Crystalline form change by XRPD ([3]; 25° C./60% RH, 12 months): changed to the crystalline form; also recorded: from Form A to Form A*

Solubility (in words) ([1]; crystalline or neat amorphous form, water, 0.1 HCl, buffer solutions of different pH): poor solubility | Weight gain (water gain) by DVS ([4]; 80% relative humidity): 4.96% | Hygroscopicity (in words) [4]: moderately hygroscopic | Optical purity change ([3]; crystalline form, 25° C./60% RH up to 12 months and 40° C./75% RH up to 6 months): no optical purity changes | bioavailability ([7]; po, 5 mpk, crystalline form, preliminary DMPK studies): ~20%
Structure (SMILES): O=C1CCc2c(Oc3ccc4c(c3)[C@H]3[C@H](NC(=O)Nc5cc(F)c(F)cc5F)[C@H]3O4)ccnc2N1 [Compound 1, 1-((1S,1aS,6bS)-5-((7-oxo-5,6,7,8-tetrahydro-1,8-naphthyridin-4-yl)oxy)-1a,6b-dihydro-1H-cyclopropa[b]benzofuran-1-yl)-3-(2,4,5-trifluorophenyl)urea]
Chemical purity change ([3]; crystalline form, 25° C./60% RH up to 12 months): does not show any significant chemical purity change | Inhibitory activity (in words) [8]: potent inhibitory activity
